Columns and labels:
Format in all cases: in vivo
[1] = system: All grass species combined (CRFescue, Brome Grass, Quackgrass); assay: Field trial: biomass reduction of pyroxsulam-treated vs untreated grass; conditions: 30 DAA
Protocol: Trials were conducted under field conditions in Canada. Trial sites were located in perennial forage grass areas. Forage grasses tested included: Bromegrass, Timothy Fescue and Wheatgrass species, including: meadow Bromegrass (BROCO, Bromus commutatus), smooth Brome grass (BROIN, Bromus inermus), Timothy (PHLPR, Phleum pretense), creeping red Fescue (FESRU, Festuca rubra), Tall Fescue (FESAR, Festuca arundinacea), and Western Wheatgrass (AGRSM, Agropyron smithii). The grasses were grown using normal cultural practices for fertilization, seeding, and maintenance to ensure good growth of the grasses. The trials were conducted using normal research methodology. Trial plots were between 2 to 5 meters (m) wide by 5 to 20 m long. All treatments were applied using a randomized complete block trial design with 3 or 4 replications per treatment. The trial sites had populations of homogeneous or heterogeneous perennial forage grass species present. […]
The treated plots and control plots were rated blind at various intervals after application. […] Quantitative measurements were also taken at various intervals after application, and measured in cm or inches height of leaf blade top height from the ground.

[2] = system: creeping red Fescue (FESRU, Festuca rubra); assay: Field trial: percent growth inhibition of creeping red Fescue
Protocol: (§1) Trials were conducted under field conditions in Canada. Trial sites were located in perennial forage grass areas. Forage grasses tested included: Bromegrass, Timothy Fescue and Wheatgrass species, including: meadow Bromegrass (BROCO, Bromus commutatus), smooth Brome grass (BROIN, Bromus inermus), Timothy (PHLPR, Phleum pretense), creeping red Fescue (FESRU, Festuca rubra), Tall Fescue (FESAR, Festuca arundinacea), and Western Wheatgrass (AGRSM, Agropyron smithii). The grasses were grown using normal cultural practices for fertilization, seeding, and maintenance to ensure good growth of the grasses. The trials were conducted using normal research methodology. Trial plots were between 2 to 5 meters (m) wide by 5 to 20 m long. All treatments were applied using a randomized complete block trial design with 3 or 4 replications per treatment. The trial sites had populations of homogeneous or heterogeneous perennial forage grass species present. Treatments consisted of pyroxsulam formulations (Simplicity® (trademark of Dow AgroSciences LLC for pyroxsulam+cloquintocet) or water-dispersible formulations of pyroxsulam) alone, or in tank mixes with Milestone® herbicide (trademark of Dow AgroSciences LLC for aminopyralid) or ClearView® herbicide (trademark of Dow AgroSciences LLC for aminopyralid+metsulfuron-methyl) with or without 2,4-D ester applied in water. Adjuvants were applied at 0.2% to 0.5% V/V. The application volumes were between 50 to 200 liters per hectare (L/ha). All application were made using precision gas hand sprayers or calibrated ATV sprayer using a 2 or 5 m boom using flat fan (80° or 110°) nozzles to broadcast the treatments post-emergent on the vegetation or soil.
(§2) The treated plots and control plots were rated blind at various intervals after application. Ratings were based on Percent (%) Visual growth suppression (reduction) from untreated grass, where […] or growth inhibition compared to the untreated grass growth. Quantitative measurements were also taken at various intervals after application, and measured in cm or inches height of leaf blade top height from the ground.

[3] = system: meadow Bromegrass (BROCO, Bromus commutatus); assay: Field trial: height of meadow Bromegrass after pyroxsulam application; conditions: for Height (cm): mean of 3 replicates
Protocol: as §1, §2

[4] = 15 g ai/ha, 0 days after application
[5] = 15 g ai/ha, 7 days after application
[6] = 15 g ai/ha, 14 days after application
[7] = 15 g ai/ha, 21 days after application
[8] = 15 g ai/ha, 30 days after application
[9] = 15 g ai/ha, 37 days after application
[10] = 15 g ai/ha, 42 days after application
[11] = 15 g ai/ha, 50 days after application
[12] = 15 g ai/ha, 56 days after application
[13] = 15 g ai/ha, 65 days after application
[14] = 15 g ai/ha, 72 days after application
[15] = 30 g ai/ha, 0 days after application
[16] = 30 g ai/ha, 7 days after application
[17] = 30 g ai/ha, 14 days after application
[18] = 30 g ai/ha, 21 days after application
[19] = 30 g ai/ha, 30 days after application
[20] = 30 g ai/ha, 37 days after application
[21] = 30 g ai/ha, 42 days after application
[22] = 30 g ai/ha, 50 days after application
[23] = 30 g ai/ha, 56 days after application
[24] = 30 g ai/ha, 65 days after application
[25] = 30 g ai/ha, 72 days after application

COc1cc(OC)n2nc(NS(=O)(=O)c3c(C(F)(F)F)ccnc3OC)nc2n1 [Pyroxsulam, N-(5,7-dimethoxy[1,2,4]-triazolo[1,5-α]pyrimidin-2-yl)-2-methoxy-4-(trifluoromethyl)-3-pyridinesulfonamide]
Biomass reduction (%) ([1]; 15 g/ha): 40%
Biomass reduction (%) ([1]; 30 g/ha): 38%
% Growth Inhibition ([2]; 15 g ai/ha, week 1): 0%
% Growth Inhibition ([2]; 15 g ai/ha, week 2): 7%
% Growth Inhibition ([2]; 15 g ai/ha, week 3): 35%
% Growth Inhibition ([2]; 15 g ai/ha, week 4): 30%
% Growth Inhibition ([2]; 15 g ai/ha, week 5): 23%
% Growth Inhibition ([2]; 15 g ai/ha, week 6): 21%
% Growth Inhibition ([2]; 15 g ai/ha, week 7): 15%
% Growth Inhibition ([2]; 15 g ai/ha, week 8): 4%
% Growth Inhibition ([2]; 15 g ai/ha, week 9): 8%
% Growth Inhibition ([2]; 15 g ai/ha, week 10): 12%
% Growth Inhibition ([2]; 30 g ai/ha, week 1): 0%
% Growth Inhibition ([2]; 30 g ai/ha, week 2): 14%
% Growth Inhibition ([2]; 30 g ai/ha, week 3): 35%
% Growth Inhibition ([2]; 30 g ai/ha, week 4): 32%
% Growth Inhibition ([2]; 30 g ai/ha, week 5): 32%
% Growth Inhibition ([2]; 30 g ai/ha, week 6): 21%
% Growth Inhibition ([2]; 30 g ai/ha, week 7): 19%
% Growth Inhibition ([2]; 30 g ai/ha, week 8): 12%
% Growth Inhibition ([2]; 30 g ai/ha, week 9): 4%
% Growth Inhibition ([2]; 30 g ai/ha, week 10): 12%
Height (% of Untreated) [3, 4]: 100.0%
Height (cm) [3, 4]: 20 cm
Height (% of Untreated) [3, 5]: 57.1%
Height (cm) [3, 5]: 20 cm
Height (% of Untreated) [3, 6]: 50.0%
Height (cm) [3, 6]: 25 cm
Height (% of Untreated) [3, 7]: 47.6%
Height (cm) [3, 7]: 30 cm
Height (% of Untreated) [3, 8]: 45.0%
Height (cm) [3, 8]: 27 cm
Height (% of Untreated) [3, 9]: 43.1%
Height (cm) [3, 9]: 28 cm
Height (% of Untreated) [3, 10]: 45.2%
Height (cm) [3, 10]: 33 cm
Height (% of Untreated) [3, 11]: 53.8%
Height (cm) [3, 11]: 42 cm
Height (% of Untreated) [3, 12]: 52.4%
Height (cm) [3, 12]: 43 cm
Height (% of Untreated) [3, 13]: 58.5%
Height (cm) [3, 13]: 48 cm
Height (% of Untreated) [3, 14]: 76.8%
Height (cm) [3, 14]: 63 cm
Height (% of Untreated) [3, 15]: 100.0%
Height (cm) [3, 15]: 20 cm
Height (% of Untreated) [3, 16]: 57.1%
Height (cm) [3, 16]: 20 cm
Height (% of Untreated) [3, 17]: 50.0%
Height (cm) [3, 17]: 25 cm
Height (% of Untreated) [3, 18]: 44.4%
Height (cm) [3, 18]: 28 cm
Height (% of Untreated) [3, 19]: 41.7%
Height (cm) [3, 19]: 25 cm
Height (% of Untreated) [3, 20]: 38.5%
Height (cm) [3, 20]: 25 cm
Height (% of Untreated) [3, 21]: 45.2%
Height (cm) [3, 21]: 33 cm
Height (% of Untreated) [3, 22]: 51.3%
Height (cm) [3, 22]: 40 cm
Height (% of Untreated) [3, 23]: 51.2%
Height (cm) [3, 23]: 42 cm
Height (% of Untreated) [3, 24]: 52.4%
Height (cm) [3, 24]: 43 cm
Height (% of Untreated) [3, 25]: 57.3%
Height (cm) [3, 25]: 47 cm
